Experimental findings from EP4512396A1, “TARGETED COVALENT INHIBITORS FOR CARBONIC ANHYDRASES” (Vilnius University, priority 2023, dated 2025) are described below.

The subject of one test is CAIX. Description: stopped-flow CO2 hydration assay before and after dialysis (irreversible enzyme inactivation). The test is classed as biochemical, human. The note with it: for catalytic activity of CAIX after 32 hours of dialysis: […] CAIX incubated 2 h with 15 µM AV19-37 or 100 µM AV19-36, dialyzed in Tris buffer pH 7.
In test [1] the target is T1, CAIII (Homo sapiens, UniProt P07451). Description: Q-TOF mass spectrometry of covalent binding. To be noted: CAIII in the presence of ligand.
In another test the target is CA VA (Homo sapiens, UniProt P35218). The note with it: pH 7.
Test [2] has as its target T1, CAIII. The experiment in a line: fluorescent thermal shift assay (FTSA). In kind it is binding.
A further test addresses CAVI (Homo sapiens, UniProt P23280). Description: fluorescent thermal shift assay (FTSA). The note with it: FTSA at 37 °C and pH 7.0, read-out: Kd_app. In kind it is binding.
For a further test, the target named is CAVII (Homo sapiens, UniProt P43166). Description: fluorescent thermal shift assay (FTSA). The test is classed as binding. To be noted: FTSA at 37 °C and pH 7.0, read-out: Kd_app.
The next test has as its target CAXIII (Homo sapiens, UniProt Q8N1Q1). Description: fluorescent thermal shift assay (FTSA). In kind it is binding. The note with it: FTSA at 37 °C and pH 7.0, read-out: Kd_app.
In a further test the target is CA IV (Homo sapiens, UniProt P22748). The experiment in a line: biochemical.
In the next test the target is CA VB (Homo sapiens, UniProt Q9Y2D0). The experiment in a line: fluorescent thermal shift assay (FTSA). To be noted: FTSA at 37 °C and pH 7.0, read-out: Kd_app. The test is classed as binding.
The next test addresses CA XIV (Homo sapiens, UniProt Q9ULX7). Description: fluorescent thermal shift assay (FTSA). The test is classed as binding. The note with it: FTSA at 37 °C and pH 7.0, read-out: Kd_app.
The next test addresses CAXII (Homo sapiens, UniProt O43570). Description: fluorescent thermal shift assay (FTSA). The test is classed as binding. To be noted: FTSA at 37 °C and pH 7.0, read-out: Kd_app.

T1 sequence (P07451 whole entry): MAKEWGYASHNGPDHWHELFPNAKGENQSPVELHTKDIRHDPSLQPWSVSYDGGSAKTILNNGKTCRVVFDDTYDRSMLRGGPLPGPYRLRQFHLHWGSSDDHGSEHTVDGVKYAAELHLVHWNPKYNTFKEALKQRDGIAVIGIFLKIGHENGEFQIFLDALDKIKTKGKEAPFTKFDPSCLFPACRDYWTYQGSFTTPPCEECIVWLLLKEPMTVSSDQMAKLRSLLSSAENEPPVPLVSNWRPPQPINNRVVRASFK
Chain of CA XIV (Q9ULX7 16-337): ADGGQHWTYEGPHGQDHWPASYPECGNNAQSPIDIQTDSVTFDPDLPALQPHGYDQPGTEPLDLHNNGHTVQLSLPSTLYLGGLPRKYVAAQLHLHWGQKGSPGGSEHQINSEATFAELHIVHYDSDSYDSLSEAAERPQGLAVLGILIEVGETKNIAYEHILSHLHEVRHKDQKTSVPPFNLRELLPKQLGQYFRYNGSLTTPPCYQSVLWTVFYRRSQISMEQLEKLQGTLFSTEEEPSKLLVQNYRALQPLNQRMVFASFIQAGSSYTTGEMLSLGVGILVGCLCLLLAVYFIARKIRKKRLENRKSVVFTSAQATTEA
Chain of CAVII (P43166 whole entry): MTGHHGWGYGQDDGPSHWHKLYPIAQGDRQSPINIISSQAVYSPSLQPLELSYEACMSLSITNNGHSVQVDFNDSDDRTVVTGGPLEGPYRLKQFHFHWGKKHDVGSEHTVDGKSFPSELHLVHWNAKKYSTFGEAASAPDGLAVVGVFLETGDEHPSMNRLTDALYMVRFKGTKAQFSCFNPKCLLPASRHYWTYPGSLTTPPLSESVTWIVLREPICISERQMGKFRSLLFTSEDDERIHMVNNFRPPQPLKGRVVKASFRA
Chain of CA VB (Q9Y2D0 34-317): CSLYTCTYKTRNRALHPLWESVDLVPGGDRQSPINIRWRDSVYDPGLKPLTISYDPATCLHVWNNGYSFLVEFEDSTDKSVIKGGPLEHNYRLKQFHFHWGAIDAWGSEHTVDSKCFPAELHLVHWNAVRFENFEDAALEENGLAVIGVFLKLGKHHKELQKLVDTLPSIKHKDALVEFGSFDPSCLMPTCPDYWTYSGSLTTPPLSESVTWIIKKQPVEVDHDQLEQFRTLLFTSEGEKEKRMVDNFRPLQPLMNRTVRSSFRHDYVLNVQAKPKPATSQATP
Chain of CA IV (P22748 19-284): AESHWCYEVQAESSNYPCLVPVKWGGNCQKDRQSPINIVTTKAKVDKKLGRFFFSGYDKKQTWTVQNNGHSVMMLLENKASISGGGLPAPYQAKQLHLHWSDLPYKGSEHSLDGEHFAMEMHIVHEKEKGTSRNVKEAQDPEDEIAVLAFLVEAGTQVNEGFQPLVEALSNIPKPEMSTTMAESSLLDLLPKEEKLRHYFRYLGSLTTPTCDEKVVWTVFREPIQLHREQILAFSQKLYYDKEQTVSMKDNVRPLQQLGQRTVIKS
Chain of CAXIII (Q8N1Q1 whole entry): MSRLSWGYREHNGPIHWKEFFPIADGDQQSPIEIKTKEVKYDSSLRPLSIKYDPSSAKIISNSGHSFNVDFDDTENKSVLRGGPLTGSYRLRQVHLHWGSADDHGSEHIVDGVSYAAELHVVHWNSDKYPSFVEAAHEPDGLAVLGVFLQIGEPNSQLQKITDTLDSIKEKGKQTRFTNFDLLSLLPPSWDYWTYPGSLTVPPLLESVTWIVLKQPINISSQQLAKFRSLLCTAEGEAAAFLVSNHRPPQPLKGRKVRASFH
Chain of CA VA (P35218 39-305): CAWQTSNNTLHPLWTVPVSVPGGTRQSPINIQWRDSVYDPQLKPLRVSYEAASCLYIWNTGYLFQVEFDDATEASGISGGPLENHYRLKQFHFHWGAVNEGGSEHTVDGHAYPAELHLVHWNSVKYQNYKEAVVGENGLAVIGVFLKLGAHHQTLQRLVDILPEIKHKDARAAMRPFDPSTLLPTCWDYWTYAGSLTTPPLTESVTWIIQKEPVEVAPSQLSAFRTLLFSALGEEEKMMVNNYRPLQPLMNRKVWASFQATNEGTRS
Chain of CAVI (P23280 21-290 limits assumed): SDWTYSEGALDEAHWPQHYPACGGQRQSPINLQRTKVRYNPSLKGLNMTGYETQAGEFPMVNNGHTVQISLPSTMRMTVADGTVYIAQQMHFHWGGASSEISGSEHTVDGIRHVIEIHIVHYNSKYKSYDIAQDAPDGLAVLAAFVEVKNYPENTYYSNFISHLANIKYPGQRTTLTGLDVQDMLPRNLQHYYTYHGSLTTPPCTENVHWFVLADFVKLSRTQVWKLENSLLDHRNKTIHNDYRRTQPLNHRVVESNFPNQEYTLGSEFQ
Chain of CAXII (O43570 25-354): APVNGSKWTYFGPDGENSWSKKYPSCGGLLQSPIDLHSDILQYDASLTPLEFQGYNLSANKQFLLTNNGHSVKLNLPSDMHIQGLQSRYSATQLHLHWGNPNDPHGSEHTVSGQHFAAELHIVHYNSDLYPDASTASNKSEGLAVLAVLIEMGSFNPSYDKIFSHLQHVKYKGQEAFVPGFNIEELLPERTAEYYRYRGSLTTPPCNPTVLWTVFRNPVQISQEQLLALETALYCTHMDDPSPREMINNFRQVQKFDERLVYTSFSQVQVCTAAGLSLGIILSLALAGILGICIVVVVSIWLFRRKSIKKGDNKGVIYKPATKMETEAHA

Regarding `CC(=O)OCCSc1c(F)c(F)c(S(N)(=O)=O)c(F)c1F` [AV19-36, 2-((2,3,5,6-tetrafluoro-4-sulfamoylphenyl)thio)ethyl acetate], in the test with CAIX, the “catalytic activity of CAIX after 32 hours of dialysis” value was “partially restored its catalytic activity”.
Turning to `CC(=O)OCCS(=O)(=O)c1c(F)c(F)c(S(N)(=O)=O)c(F)c1NC1CCCCCCC1` [AV19-37, 2-((2-(cyclooctylamino)-3,5,6-trifluoro-4-sulfamoylphenyl)sulfonyl)ethyl acetate], on CAIII [1], the “covalent modification by MS” value is reported as “did not show a covalent modification”. Also, in the test with CAIX, the “catalytic activity of CAIX after 32 hours of dialysis” value was “not restored”. In addition, in the test on CAIX ([…] CAIX, 15 µM AV19-37, CO2 hydration, 25 °C, pH 7.5), the “catalytic activity of CAIX after 2 hours of incubation with compound” value is recorded as “lost its catalytic activity”.
Turning to `NS(=O)(=O)c1c(F)c(F)c(S(=O)(=O)CCOC(=O)Cc2ccccc2)c(F)c1F` [AV21-25, 2-((2,3,5,6-tetrafluoro-4-sulfamoylphenyl)sulfonyl)ethyl 2-phenylacetate], the Kd amounted to 2.5 nM on CA VA; 18000 nM on CAIII [2]; 0.36 nM on CAVI; 0.83 nM on CAVII; 0.012 nM at CAXIII; 45 nM on CA IV. Besides, the values for the Kd on CA VB, at CA XIV and on CAXII were 0.017 nM, 0.28 nM and 0.072 nM, respectively.
